Consider 57 molecules from the RepoRT retention time repository.

The data set in a line: HILIC, HILICON iHILIC-(P) Classic, HILIC, PEEK, 50 × 2.1 mm, 5 µm, 30 °C, 0.12 mL/min, estimated dead time 0.92 min; A: water + 20 mM ammonium carbonate; B: acetonitrile; gradient (min/%B) 0/80 1/80 21/20 21.5/20 26.5/20 27.5/80 35/80. To be noted: stereoisomer not certain.
With `O=C(O)CC(C(=O)O)C(O)C(=O)O` (configuration not stated) [Isocitric acid], the LC retention time is 15.8 min. Take `Nc1nc2ncc(CNc3ccc(C(=O)NC(CCC(=O)O)C(=O)O)cc3)nc2c(=O)[nH]1` (configuration not stated) [Folic Acid]: the LC retention time was 14.4 min. Take `Nc1ncnc2nc[nH]c12` [Adenine]: the LC retention time was 3.84 min. As for `CC(=O)SCCNC(=O)CCNC(=O)C(O)C(C)(C)COP(=O)(O)OP(=O)(O)OCC1OC(n2cnc3c(N)ncnc32)C(O)C1OP(=O)(O)O` (configuration not stated) [Acetyl-CoA], the figure is 8.59 min. As for `NC(Cc1ccc(O)cc1)C(=O)O` (configuration not stated) [Tyrosine], the figure is 8.15 min. Consider `NC(=O)c1ccc[n+](C2OC(COP(=O)(O)OP(=O)(O)OCC3OC(n4cnc5c(N)ncnc54)C(OP(=O)(O)O)C3O)C(O)C2O)c1` (configuration not stated) [NADP], for which the LC retention time is 13.4 min. As for `O=c1ccn(C2OC(COP(=O)(O)OP(=O)(O)OP(=O)(O)O)C(O)C2O)c(=O)[nH]1` (configuration not stated) [UTP], the figure is 14.1 min; as for `NC(CCC(=O)NC(CSSCC(NC(=O)CCC(N)C(=O)O)C(=O)NCC(=O)O)C(=O)NCC(=O)O)C(=O)O` (configuration not stated) [GSSG], 15.6 min; as for `NCCCC(N)C(=O)O` (configuration not stated) [Ornithine], 17.7 min. `CC(O)C(N)C(=O)O` (configuration not stated) [Threonine]: the LC retention time was 8.47 min. `CC(=O)NC(CC(=O)O)C(=O)O` (configuration not stated) [N-Acetylaspartic acid]: the LC retention time was 9.49 min. Regarding `CC(C)C(N)C(=O)O` (configuration not stated) [Valine], the LC retention time was 6.97 min. As for `NC(Cc1ccccc1)C(=O)O` (configuration not stated) [Phenylalanine], the figure is 5.37 min; as for `CC(=O)NC1C(OP(=O)(O)OP(=O)(O)OCC2OC(n3ccc(=O)[nH]c3=O)C(O)C2O)OC(CO)C(O)C1O` (configuration not stated) [UDP-GlcNAc], 11.9 min. As for `Nc1ccn(C2OC(CO)C(O)C2O)c(=O)n1` (configuration not stated) [Cytidine], the figure is 6.28 min; as for `NC(=O)CC(N)C(=O)O` (configuration not stated) [Asparagine], 11.1 min; as for `O=C(O)CC(O)C(=O)O` (configuration not stated) [Malic Acid], 13 min. For `O=C(O)CC(O)(CC(=O)O)C(=O)O` [Citric acid] the value was 16.5 min. On to `Nc1nc2c(ncn2C2OC(COP(=O)(O)OP(=O)(O)OP(=O)(O)O)C(O)C2O)c(=O)[nH]1` (configuration not stated) [GTP], for which the LC retention time is 16.9 min. Regarding `O=C(O)CCC(=O)O` [Succinic Acid], the LC retention time was 12.1 min. Turning to `O=P(O)(O)OCC(O)CO` (configuration not stated) [Glycerol-3-phosphate], the LC retention time was 10.9 min. For `NC(CCC(=O)NC(CS)C(=O)NCC(=O)O)C(=O)O` (configuration not stated) [GSH], the LC retention time is 8.95 min.

Consider `NC(CO)C(=O)O` (configuration not stated) [Serine], for which the LC retention time is 9.56 min.

`Nc1ncnc2c1ncn2C1OC(COP(=O)(O)OP(=O)(O)OP(=O)(O)O)C(O)C1O` (configuration not stated) [ATP]: the LC retention time is 13.9 min. For `NC(=O)CCC(N)C(=O)O` (configuration not stated) [Glutamine], the LC retention time is 8.86 min.

With `NC(CCC(=O)O)C(=O)O` (configuration not stated) [Glutamic acid], the LC retention time was 10.2 min. Turning to `O=C1OC(C(O)CO)C(O)=C1O` (configuration not stated) [Ascorbic Acid], the LC retention time is 9.51 min. Consider `Nc1ncnc2c1ncn2C1OC(COP(=O)(O)OP(=O)(O)O)C(O)C1O` (configuration not stated) [ADP], for which the LC retention time was 12.5 min. For `Nc1nc2c(ncn2C2OC(CO)C(O)C2O)c(=O)[nH]1` (configuration not stated) [Guanosine] the value was 7.27 min; for `O=C(O)C1CCCN1` (configuration not stated) [Proline], 7.48 min; for `Nc1nc2c(ncn2C2OC(COP(=O)(O)OP(=O)(O)O)C(O)C2O)c(=O)[nH]1` (configuration not stated) [GDP], 14.8 min. For `Nc1ncnc2c1ncn2C1OC(COP(=O)(O)O)C(O)C1O` (configuration not stated) [AMP] the value was 8.62 min; for `NC(=O)C1=CN(C2OC(COP(=O)(O)OP(=O)(O)OCC3OC(n4cnc5c(N)ncnc54)C(O)C3O)C(O)C2O)C=CC1` (configuration not stated) [NADH], 9.95 min; for `O=C(O)c1cccnc1` [Nicotinic acid], 2.1 min. For `O=C(O)C1(O)CC(O)C(O)C(O)C1` (configuration not stated) [Quinic Acid] the value was 6.75 min. For the molecule `CC(O)C(=O)O` (configuration not stated) [Lactic Acid], the LC retention time is 3.22 min. As for `NC(Cc1c[nH]c2ccccc12)C(=O)O` (configuration not stated) [Tryptophan], the figure is 6.31 min; as for `CSCCC(N)C(=O)O` (configuration not stated) [Methionine], 6.99 min; as for `O=c1ccn(C2OC(COP(=O)(O)OP(=O)(O)O)C(O)C2O)c(=O)[nH]1` (configuration not stated) [UDP], 12.3 min. In the case of `NC(=O)c1ccc[n+](C2OC(COP(=O)([O-])O)C(O)C2O)c1` (configuration not stated) [NMN], the LC retention time was 9.99 min. As for `O=c1ccn(C2OC(COP(=O)(O)O)C(O)C2O)c(=O)[nH]1` (configuration not stated) [UMP], the figure is 9.59 min; as for `NCCCCC(N)C(=O)O` (configuration not stated) [Lysine], 18.4 min. As for `O=C(O)C(CO)OP(=O)(O)O` (configuration not stated) [Phosphoglyceric acid A], the figure is 13.6 min; as for `Cc1ncc(C[n+]2csc(CCO)c2C)c(N)n1` [Thiamine], 12.7 min.

As for `O=C(O)CC(=O)O` [Malonic Acid], the LC retention time is 9.63 min. For `Nc1ccn(C2OC(COP(=O)(O)OP(=O)(O)O)C(O)C2O)c(=O)n1` (configuration not stated) [CDP], the LC retention time is 13.2 min.

For the molecule `NC(=O)c1ccc[n+](C2OC(COP(=O)(O)OP(=O)(O)OCC3OC(n4cnc5c(N)ncnc54)C(O)C3O)C(O)C2O)c1` (configuration not stated) [NAD], the LC retention time is 9.43 min. As for `O=C(CO)COP(=O)(O)O` [Triose phosphate], the figure is 11.5 min. For `NC(CSSCC(N)C(=O)O)C(=O)O` (configuration not stated) [Cystine] the value was 11.8 min. In the case of `CCC(C)C(N)C(=O)O` (configuration not stated) [Isoleucine], the LC retention time is 6.75 min. For `Nc1ccn(C2OC(COP(=O)(O)O)C(O)C2O)c(=O)n1` (configuration not stated) [CMP] the value was 10.8 min; for `O=C(O)CCCCC1SCC2NC(=O)NC21` (configuration not stated) [Biotin], 3.76 min; for `Nc1ncnc2c1ncn2C1OC(CO)C(O)C1O` (configuration not stated) [Adenosine], 3.76 min. With `NC(=O)C1=CN(C2OC(COP(=O)(O)OP(=O)(O)OCC3OC(n4cnc5c(N)ncnc54)C(OP(=O)(O)O)C3O)C(O)C2O)C=CC1` (configuration not stated) [NADPH], the LC retention time was 16.3 min.

With `Nc1nc2c(ncn2C2OC(COP(=O)(O)O)C(O)C2O)c(=O)[nH]1` (configuration not stated) [GMP], the LC retention time was 13.9 min.

In the case of `CC(C)CC(N)C(=O)O` (configuration not stated) [Leucine], the LC retention time is 5.63 min.

As to `C=C(OP(=O)(O)O)C(=O)O` [PEP], the LC retention time was 13.6 min.
